“And” between values parts separate entries of the source, which are not always exact repeats. Equal values may be shown once. HELM strings list units from the 5' end as sugar, base in round brackets, then linkage (d deoxyribose, r ribose, m 2'-O-methyl, p phosphodiester). Methylation of C is not given here. [moe] = 2'-O-(2-methoxyethyl) (MOE); [cEt] = constrained ethyl (cEt); [sp] = phosphorothioate linkage

In the first data set the target is HBV. To be noted: ASO, HepG2, 0.0092593 µM.
“RNA1{[moe](G)[sp].[moe](A)[sp].[moe](G)[sp].d(G)[sp].d(C)[sp].d(A)[sp].d(T)[sp].d(A)[sp].d(G)[sp].d(C)[sp].d(A)[sp].d(G)[sp].d(C)[sp].[moe](A)[sp].[moe](G)[sp].[moe](G)}$$$$V2.0” yielded a target mRNA inhibition of 4%.

The data set is the same for the next values; noted with them: ASO, HepG2, 0.0277778 µM.
“RNA1{[moe](G)[sp].[moe](A)[sp].[moe](G)[sp].d(G)[sp].d(C)[sp].d(A)[sp].d(T)[sp].d(A)[sp].d(G)[sp].d(C)[sp].d(A)[sp].d(G)[sp].d(C)[sp].[moe](A)[sp].[moe](G)[sp].[moe](G)}$$$$V2.0” displayed a target mRNA inhibition of 24%.

Staying with this data set, now noted: ASO, HepG2, 0.07 µM.
For “RNA1{[moe](G)[sp].[cEt](T)[sp].[cEt](C)[sp].d(C)[sp].d(A)[sp].d(C)[sp].d(C)[sp].d(A)[sp].d(C)[sp].d(G)[sp].d(A)[sp].d(G)[sp].d(T)[sp].[cEt](C)[sp].[cEt](T)[sp].[moe](A)}$$$$V2.0”, the target mRNA inhibition was 55% and 56%. As for “RNA1{[moe](G)[sp].[cEt](T)[sp].[cEt](T)[sp].d(C)[sp].d(C)[sp].d(G)[sp].d(C)[sp].d(A)[sp].d(G)[sp].d(T)[sp].d(A)[sp].d(T)[sp].d(G)[sp].[cEt](G)[sp].[cEt](A)[sp].[moe](T)}$$$$V2.0”, the target mRNA inhibition is 69% and 72%.

As for “RNA1{[moe](G)[sp].[cEt](T)[sp].d(T)[sp].d(C)[sp].d(C)[sp].d(G)[sp].d(C)[sp].d(A)[sp].d(G)[sp].d(T)[sp].d(A)[sp].d(T)[sp].[cEt](G)[sp].[moe](G)[sp].[cEt](A)[sp].[moe](T)}$$$$V2.0”, the target mRNA inhibition was 76% and 53%. Still for that read-out and setting: under “RNA1{[moe](G)[sp].[moe](A)[sp].[moe](A)[sp].[moe](C)[sp].[moe](T)[sp].d(G)[sp].d(G)[sp].d(A)[sp].d(G)[sp].d(C)[sp].d(C)[sp].d(A)[sp].d(C)[sp].d(C)[sp].[moe](A)[sp].[moe](G)}$$$$V2.0” stands 46% and 39%; under “RNA1{[moe](G)[sp].[moe](A)[sp].[moe](A)[sp].[moe](G)[sp].[moe](C)[sp].[moe](G)[sp].d(A)[sp].d(A)[sp].d(G)[sp].d(T)[sp].d(G)[sp].d(C)[sp].d(A)[sp].d(C)[sp].d(A)[sp].[moe](C)[sp].[moe](G)}$$$$V2.0”, 87% and 66%; under “RNA1{[moe](G)[sp].[moe](A)[sp].[moe](A)[sp].[moe](G)[sp].[moe](T)[sp].[moe](C)[sp].d(C)[sp].d(A)[sp].d(C)[sp].d(C)[sp].d(A)[sp].d(C)[sp].d(G)[sp].d(A)[sp].d(G)[sp].[moe](T)[sp].[moe](C)}$$$$V2.0”, 42%. With “RNA1{[moe](G)[sp].[moe](A)[sp].[moe](A)[sp].[moe](G)[sp].[moe](T)[sp].d(C)[sp].d(C)[sp].d(A)[sp].d(C)[sp].d(C)[sp].d(A)[sp].d(C)[sp].d(G)[sp].d(A)[sp].[moe](G)[sp].[moe](T)[sp].[moe](C)}$$$$V2.0”, the target mRNA inhibition was 5% and 2%. In the case of “RNA1{[moe](G)[sp].[moe](A)[sp].[moe](A)[sp].d(C)[sp].d(C)[sp].d(A)[sp].d(C)[sp].d(T)[sp].d(G)[sp].d(A)[sp].d(A)[sp].d(C)[sp].[moe](A)[sp].[moe](A)[sp].[moe](A)[sp].[moe](T)[sp].[moe](G)}$$$$V2.0”, the target mRNA inhibition was 39% and 47%. Regarding “RNA1{[moe](G)[sp].[moe](A)[sp].[moe](A)[sp].d(C)[sp].d(C)[sp].d(A)[sp].d(C)[sp].d(T)[sp].d(G)[sp].d(A)[sp].d(A)[sp].d(C)[sp].[moe](A)[sp].[moe](A)[sp].[moe](A)[sp].[moe](T)}$$$$V2.0”, the target mRNA inhibition is 46% and 42%. With “RNA1{[moe](G)[sp].[moe](A)[sp].[moe](A)[sp].d(C)[sp].d(C)[sp].d(A)[sp].d(C)[sp].d(T)[sp].d(G)[sp].d(A)[sp].d(A)[sp].d(C)[sp].d(A)[sp].[cEt](A)[sp].[cEt](A)[sp].[cEt](T)}$$$$V2.0”, the target mRNA inhibition is 30% and 48%. On the same count and under the same terms, under “RNA1{[moe](G)[sp].[moe](A)[sp].[moe](A)[sp].d(C)[sp].d(T)[sp].d(G)[sp].d(G)[sp].d(A)[sp].d(G)[sp].d(C)[sp].d(C)[sp].d(A)[sp].d(C)[sp].[cEt](C)[sp].[cEt](A)[sp].[cEt](G)}$$$$V2.0” stands 59% and 58%; under “RNA1{[moe](G)[sp].[moe](A)[sp].[moe](A)[sp].d(G)[sp].d(C)[sp].d(G)[sp].d(A)[sp].d(A)[sp].d(G)[sp].d(T)[sp].d(G)[sp].d(C)[sp].[moe](A)[sp].[moe](C)[sp].[moe](A)[sp].[moe](C)}$$$$V2.0”, 52% and 50%. For the substance “RNA1{[moe](G)[sp].[moe](A)[sp].[moe](A)[sp].d(G)[sp].d(C)[sp].d(G)[sp].d(A)[sp].d(A)[sp].d(G)[sp].d(T)[sp].d(G)[sp].d(C)[sp].d(A)[sp].[cEt](C)[sp].[cEt](A)[sp].[cEt](C)}$$$$V2.0”, the target mRNA inhibition is 67%. As for “RNA1{[moe](G)[sp].[moe](A)[sp].[moe](G)[sp].[moe](G)[sp].[moe](T)[sp].[moe](G)[sp].d(A)[sp].d(A)[sp].d(G)[sp].d(C)[sp].d(G)[sp].d(A)[sp].d(A)[sp].d(G)[sp].d(T)[sp].[moe](G)[sp].[moe](C)}$$$$V2.0”, the target mRNA inhibition was 75% and 52%. “RNA1{[moe](G)[sp].[moe](A)[sp].[moe](G)[sp].[moe](G)[sp].d(C)[sp].d(A)[sp].d(T)[sp].d(A)[sp].d(G)[sp].d(C)[sp].d(A)[sp].d(G)[sp].d(C)[sp].[moe](A)[sp].[moe](G)[sp].[moe](G)[sp].[moe](A)}$$$$V2.0” gave a target mRNA inhibition of 35%.

As for “RNA1{[moe](G)[sp].[moe](A)[sp].[moe](G)[sp].[moe](T)[sp].[moe](T)[sp].d(C)[sp].d(C)[sp].d(G)[sp].d(C)[sp].d(A)[sp].d(G)[sp].d(T)[sp].d(A)[sp].d(T)[sp].[moe](G)[sp].[moe](G)[sp].[moe](A)}$$$$V2.0”, the target mRNA inhibition was 75% and 56%.

As to “RNA1{[moe](G)[sp].[moe](A)[sp].[moe](G)[sp].d(A)[sp].d(A)[sp].d(G)[sp].d(T)[sp].d(C)[sp].d(C)[sp].d(A)[sp].d(C)[sp].d(C)[sp].d(A)[sp].[cEt](C)[sp].[cEt](G)[sp].[cEt](A)}$$$$V2.0”, the target mRNA inhibition is 60% and 71%. “RNA1{[moe](G)[sp].[moe](A)[sp].[moe](G)[sp].d(A)[sp].d(G)[sp].d(A)[sp].d(A)[sp].d(G)[sp].d(T)[sp].d(C)[sp].d(C)[sp].d(A)[sp].d(C)[sp].[cEt](C)[sp].[cEt](A)[sp].[cEt](C)}$$$$V2.0”: the target mRNA inhibition is 38% and 23%. Turning to “RNA1{[moe](G)[sp].[moe](A)[sp].[moe](G)[sp].d(G)[sp].d(C)[sp].d(A)[sp].d(T)[sp].d(A)[sp].d(G)[sp].d(C)[sp].d(A)[sp].d(G)[sp].[moe](C)[sp].[moe](A)[sp].[moe](G)[sp].[moe](G)[sp].[moe](A)}$$$$V2.0”, the target mRNA inhibition was 66% and 57%. On the same count and under the same terms, under “RNA1{[moe](G)[sp].[moe](A)[sp].[moe](G)[sp].d(G)[sp].d(T)[sp].d(G)[sp].d(A)[sp].d(A)[sp].d(G)[sp].d(C)[sp].d(G)[sp].d(A)[sp].[moe](A)[sp].[moe](G)[sp].[moe](T)[sp].[moe](G)}$$$$V2.0” stands 57% and 54%; under “RNA1{[moe](G)[sp].[moe](A)[sp].[moe](G)[sp].d(G)[sp].d(T)[sp].d(G)[sp].d(A)[sp].d(A)[sp].d(G)[sp].d(C)[sp].d(G)[sp].d(A)[sp].d(A)[sp].[cEt](G)[sp].[cEt](T)[sp].[cEt](G)}$$$$V2.0”, 67% and 57%; under “RNA1{[moe](G)[sp].[moe](A)[sp].[moe](G)[sp].d(T)[sp].d(T)[sp].d(C)[sp].d(C)[sp].d(G)[sp].d(C)[sp].d(A)[sp].d(G)[sp].d(T)[sp].d(A)[sp].[cEt](T)[sp].[cEt](G)[sp].[cEt](G)}$$$$V2.0”, 70% and 62%. Same read-out and setting: under “RNA1{[moe](G)[sp].[moe](A)[sp].[moe](T)[sp].[moe](G)[sp].[moe](A)[sp].d(G)[sp].d(G)[sp].d(C)[sp].d(A)[sp].d(T)[sp].d(A)[sp].d(G)[sp].d(C)[sp].d(A)[sp].[moe](G)[sp].[moe](C)}$$$$V2.0” stands 45% and 31%. Same read-out and setting: under “RNA1{[moe](G)[sp].[moe](A)[sp].d(A)[sp].d(G)[sp].d(T)[sp].d(C)[sp].d(C)[sp].d(A)[sp].d(C)[sp].d(C)[sp].d(A)[sp].[moe](C)[sp].[moe](G)[sp].[moe](A)[sp].[moe](G)[sp].[moe](T)[sp].[moe](C)}$$$$V2.0” stands 66% and 49%; under “RNA1{[moe](G)[sp].[moe](A)[sp].d(G)[sp].d(G)[sp].d(C)[sp].d(A)[sp].d(T)[sp].d(A)[sp].d(G)[sp].d(C)[sp].d(A)[sp].[moe](G)[sp].[moe](C)[sp].[moe](A)[sp].[moe](G)[sp].[moe](G)}$$$$V2.0”, 0%; under “RNA1{[moe](G)[sp].[moe](A)[sp].d(G)[sp].d(G)[sp].d(T)[sp].d(G)[sp].d(A)[sp].d(A)[sp].d(G)[sp].d(C)[sp].d(G)[sp].[moe](A)[sp].[moe](A)[sp].[moe](G)[sp].[moe](T)[sp].[moe](G)}$$$$V2.0”, 51% and 46%. As to “RNA1{[moe](G)[sp].[moe](C)[sp].[moe](A)[sp].[moe](C)[sp].d(T)[sp].d(A)[sp].d(G)[sp].d(T)[sp].d(A)[sp].d(A)[sp].d(A)[sp].d(C)[sp].d(T)[sp].[moe](G)[sp].[moe](A)[sp].[moe](G)[sp].[moe](C)}$$$$V2.0”, the target mRNA inhibition is 55% and 47%. Regarding “RNA1{[moe](G)[sp].[moe](C)[sp].[moe](A)[sp].[moe](G)[sp].[moe](A)[sp].[moe](G)[sp].d(G)[sp].d(T)[sp].d(G)[sp].d(A)[sp].d(A)[sp].d(G)[sp].d(C)[sp].d(G)[sp].d(A)[sp].[moe](A)[sp].[moe](G)}$$$$V2.0”, the target mRNA inhibition is 65% and 68%. On the same count and under the same terms, the result for “RNA1{[moe](G)[sp].[moe](C)[sp].[moe](A)[sp].d(G)[sp].d(T)[sp].d(A)[sp].d(T)[sp].d(G)[sp].d(G)[sp].d(A)[sp].d(T)[sp].d(C)[sp].[moe](G)[sp].[moe](G)[sp].[moe](C)[sp].[moe](A)}$$$$V2.0” reads 81% and 72%.

Staying with this data set, now noted: ASO, HepG2, 0.0833333 µM.
The substance “RNA1{[moe](G)[sp].[moe](A)[sp].[moe](G)[sp].d(G)[sp].d(C)[sp].d(A)[sp].d(T)[sp].d(A)[sp].d(G)[sp].d(C)[sp].d(A)[sp].d(G)[sp].d(C)[sp].[moe](A)[sp].[moe](G)[sp].[moe](G)}$$$$V2.0” gave a target mRNA inhibition of 49%.

Staying with this data set, now noted: ASO, HepG2, 0.25 µM.
On to “RNA1{[moe](G)[sp].[moe](A)[sp].[moe](G)[sp].d(G)[sp].d(C)[sp].d(A)[sp].d(T)[sp].d(A)[sp].d(G)[sp].d(C)[sp].d(A)[sp].d(G)[sp].d(C)[sp].[moe](A)[sp].[moe](G)[sp].[moe](G)}$$$$V2.0”, for which the target mRNA inhibition was determined as 67%.

The record behind these values is the OligoGym collection.
